{
  "source": "patent US20040122081A1",
  "about": "“Pharmaceutical compositions and methods of using taxane derivatives” (priority 2002, published 2004)",
  "type_in_all_cases": "physicochemical",
  "key": {"[1]": {"test": "Intrinsic aqueous solubility", "details": "water", "text": "Therefore, it was necessary to formulate the compound in such a way to get the desired solubility at a physiological pH and maintain stability prior to administration."}, "[2]": {"test": "Solubility of compound in a co-solvent:water mixture", "details": "aqueous with cosolvent or surfactant or cyclodextrin, thermodynamic from solid, stirred over 16 hours", "description": "Approximately 25 mg of drug substance was added to 2 mL aqueous solution of ethanol (33%, 50% and 75% v/v). An additional 10 mg of drug substance was added to the 75% sample as all drug appeared to dissolve. A similar study was performed by adding approximately 25 mg drug substance to 2 mL aqueous solution of tertiary butyl alcohol (33%, 50% and 66% v/v). Samples were stirred for over 16 hours, filtered through 0.45μ nylon syringe filters, diluted and analyzed by HPLC for drug concentration. The results shown in Table I indicate that among the conditions evaluated, 75% v/v dehydrated alcohol in water for injection provided the highest solubility. Based on the results of these studies, a formulation of 15 mg/mL drug substance in 75% v/v ethanol:water was selected for further studies."}, "[3]": {"test": "Effect of pH on drug substance stability in ethanol:buffer solutions", "details": "for % Compound Remaining / Total Impurity Index: 1 mg/mL in 75% v/v ethanol:0.01M tartrate, 18 days 50° C.", "description": "The effect of pH on the drug substance stability was also studied. The buffer pH providing maximum stability was determined by comparing the stability of prototype formulations of the drug substance. […] Relative area percents of drug peaks were evaluated following 2 days storage at 85° C. […] Subsequent experiments evaluated stability (1 mg drug/mL) in 75% v/v ethanol:0.01M tartrate buffers. Three mL aliquots of samples were dispensed into 5 cc Type I glass vials and closed with West 4405/50 20 mm stoppers. Percent drug substance remaining, and impurities were evaluated following 18 days storage at 50° C. and compared to initial values."}, "[4]": {"test": "Solubility in aqueous dehydrated alcohol / POE castor oil solutions", "details": "aqueous dehydrated alcohol/POE castor oil solution, 24 °C, aqueous with cosolvent or surfactant or cyclodextrin, thermodynamic from solid, stirred 16 hours, read-out: Drug Solubility", "description": "However, this solution cannot be injected directly into patients as the non-aqueous components exceed 20%, thus potentially causing irritation at the injection site. […] It has been shown that the precipitation can be avoided by inclusion of a co-solvent such as polyoxyethylated (POE) castor oil in the formulation. Subsequently, solubility of the drug substance was determined in solutions containing various amounts of dehydrated alcohol and POE castor oil. Approximately 20 mg of drug was added to 3 mL aliquots of the solutions shown below in Table III. Samples were stirred for 16 hours, filtered trough 0.45 micron nylon syringe filters and analyzed by HPLC for drug concentration."}, "[5]": {"test": "Solubility in prototype formulation (75% v/v dehydrated alcohol, 10 mM tartrate buffer, apparent pH 5.4)", "details": "aqueous with cosolvent or surfactant or cyclodextrin, thermodynamic from solid", "description": "Solubility of four lots of drug substance was evaluated in the prototype formulation developed; 75% v/v dehydrated alcohol, 10 mM tartrate buffer resulting in an apparent pH of 5.4. 15 mg/mL of drug substance were used. 5 mL aliquots of the solution were dispensed into glass vials and an additional (˜50 mg) of drug substance was added. The vials were closed, sealed and stirred for 16 hours at room temperature. Samples were filtered and analyzed by HPLC for drug concentration."}, "[6]": {"test": "Stability of solution in presence of POE castor oil at 50° C.", "details": "for Potency / Total Impurities: solution containing dehydrated alcohol and POE castor oil", "text": "As shown below, the stability of the solution containing POE castor oil was much lower than the injection solution without the co-solvent."}, "[7]": {"test": "Equilibrium solubility in diluted drug product (mixed two-vial formulation)", "details": "7.5% ethanol, 4% POE castor oil in tartrate buffer; for solubility thermodynamic at 16 h: 24 °C", "description": "A study was also undertaken to determine the equilibrium solubility of Compound Ia in the mixture obtained by mixing the contents of the two vial formulation. Ten milliliters of the mixed solution was transferred into four 10 cc Type I flint glass vials. To each of these aliquots, approximately 25 mg of drug substance was added. A different lot of drug substance was added to each vial. Vials were closed with West Teflon-faced stoppers, sealed with aluminum seals and stirred for 16 hours at room temperature, protected from light. Samples were filtered through 0.45 micron hydrophilic PVDF membranes and analyzed by HPLC for drug concentration. Solubility results are listed below in Table VI. […] Samples were prepared and stirred at 24±3° C. for about 5 hours and placed in a 5±3° C. storage chamber for about 17 hours. Upon removal from the storage chamber, samples were immediately filtered and analyzed by HPLC for drug concentration."}, "[8]": {"test": "Dilution of drug solution with aqueous diluents", "details": "15 mg/mL drug solution (75% ethanol/10 mM tartrate buffer, apparent pH 5.4) diluted with 0.9% sodium chloride injection or 5% dextrose injection"}, "[9]": {"details": "Buffer pH 2.6, apparent pH 3.88"}, "[10]": {"details": "Buffer pH 3.0, apparent pH 4.67"}, "[11]": {"details": "Buffer pH 3.5, apparent pH 5.15"}, "[12]": {"details": "Buffer pH 3.6, apparent pH 5.20"}, "[13]": {"details": "Buffer pH 3.8, apparent pH 5.39"}, "[14]": {"details": "Buffer pH 4.0, apparent pH 5.69"}, "[15]": {"details": "Buffer pH 4.0, apparent pH 5.81"}, "[16]": {"details": "Buffer pH 4.2, apparent pH 5.99"}, "[17]": {"details": "Buffer pH 4.4, apparent pH 6.24"}},
  "note": "Values joined by “and” are separate entries in the source; they are usually repeats but may differ in a detail not shown here. Identical values can stand only once. Like-named read-outs stand apart in the source and are kept apart here.",
  "data": [
    {"smiles": "CSCO[C@H]1C[C@H]2OC[C@@]2(OC(C)=O)[C@H]2[C@H](OC(=O)c3ccccc3)[C@]3(O)C[C@H](OC(=O)[C@H](O)[C@@H](NC(=O)c4ccccc4)c4ccccc4)C(C)=C([C@@H](OC(C)=O)C(=O)[C@]12C)C3(C)C", "note": "[Compound Ia, 7-O-methylthiomethylpaclitaxel]", "values": [
      {"measurement": "solubility", "setting": "[1]", "value": "< 0.1", "unit": "µg/mL"},
      {"measurement": "solubility", "setting": "[2]; ethanol:water mixture, Dehydrated Alcohol, USP 33% v/v in water", "value": 30, "unit": "µg/mL"},
      {"measurement": "solubility", "setting": "[2]; ethanol:water mixture, Dehydrated Alcohol, USP 50% v/v in water", "value": 1640, "unit": "µg/mL"},
      {"measurement": "solubility", "setting": "[2]; ethanol:water mixture, Dehydrated Alcohol, USP 75% v/v in water", "value": "> 17500", "unit": "µg/mL"},
      {"measurement": "solubility", "setting": "[2]; tertiary butyl alcohol:water mixture, Tertiary Butyl Alcohol 33% v/v in water", "value": 190, "unit": "µg/mL"},
      {"measurement": "solubility", "setting": "[2]; tertiary butyl alcohol:water mixture, Tertiary Butyl Alcohol 50% v/v in water", "value": 3130, "unit": "µg/mL"},
      {"measurement": "solubility", "setting": "[2]; tertiary butyl alcohol:water mixture, Tertiary Butyl Alcohol 66% v/v in water", "value": 13000, "unit": "µg/mL"},
      {"measurement": "buffer pH at which the best stability was achieved", "setting": "[3]; 0.2 mg drug/mL in 16.7% v/v ethanol:0.1M citrate buffers, 2 days storage at 85° C., HPLC relative area percent", "value": 4.5},
      {"measurement": "apparent pH of the most stable solution", "setting": "[3]; 1 mg drug/mL in 75% v/v ethanol:0.01M tartrate buffers, 18 days at 50° C., corresponds to tartrate buffer pH 3.8", "value": 5.4},
      {"measurement": "% Compound Remaining", "setting": "[3]; [9]", "value": 94.4, "unit": "%"},
      {"measurement": "Total Impurity Index", "setting": "[3]; [9]", "value": 4.16, "unit": "Area %"},
      {"measurement": "% Compound Remaining", "setting": "[3]; [10]", "value": 97.1, "unit": "%"},
      {"measurement": "Total Impurity Index", "setting": "[3]; [10]", "value": 2.51, "unit": "Area %"},
      {"measurement": "% Compound Remaining", "setting": "[3]; [11]", "value": 97.1, "unit": "%"},
      {"measurement": "Total Impurity Index", "setting": "[3]; [11]", "value": 2.06, "unit": "Area %"},
      {"measurement": "% Compound Remaining", "setting": "[3]; [12]", "value": 98.1, "unit": "%"},
      {"measurement": "Total Impurity Index", "setting": "[3]; [12]", "value": 1.36, "unit": "Area %"},
      {"measurement": "% Compound Remaining", "setting": "[3]; [13]", "value": 101, "unit": "%"},
      {"measurement": "Total Impurity Index", "setting": "[3]; [13]", "value": 1.34, "unit": "Area %"},
      {"measurement": "% Compound Remaining", "setting": "[3]; [14]", "value": 100, "unit": "%"},
      {"measurement": "Total Impurity Index", "setting": "[3]; [14]", "value": 1.62, "unit": "Area %"},
      {"measurement": "% Compound Remaining", "setting": "[3]; [15]", "value": 98.1, "unit": "%"},
      {"measurement": "Total Impurity Index", "setting": "[3]; [15]", "value": 1.99, "unit": "Area %"},
      {"measurement": "% Compound Remaining", "setting": "[3]; [16]", "value": 99, "unit": "%"},
      {"measurement": "Total Impurity Index", "setting": "[3]; [16]", "value": 1.67, "unit": "Area %"},
      {"measurement": "% Compound Remaining", "setting": "[3]; [17]", "value": 100, "unit": "%"},
      {"measurement": "Total Impurity Index", "setting": "[3]; [17]", "value": 1.84, "unit": "Area %"},
      {"measurement": "solubility at 16 h", "setting": "[4]; Aqueous vehicle: Dehydrated Alcohol 3.75% v/v, POE Castor Oil 2% v/v", "value": 960, "unit": "µg/mL"},
      {"measurement": "solubility at 16 h", "setting": "[4]; Aqueous vehicle: Dehydrated Alcohol 7.50% v/v, POE Castor Oil 4% v/v", "value": "> 1500", "unit": "µg/mL"},
      {"measurement": "solubility at 16 h", "setting": "[4]; Aqueous vehicle: Dehydrated Alcohol 9.375% v/v, POE Castor Oil 5% v/v", "value": 2910, "unit": "µg/mL"},
      {"measurement": "solubility thermodynamic", "setting": "[5]; 5 °C, 5±3° C., read-out: equilibrium solubility", "value": 23000, "unit": "µg/mL"},
      {"measurement": "solubility at 16 h", "setting": "[5]; 25 °C, room temperature, average of four lots", "value": "~22000", "unit": "µg/mL"},
      {"measurement": "Potency", "setting": "[6]; 6 days @ 50° C.", "value": 2000, "unit": "µg/mL"},
      {"measurement": "Total Impurities", "setting": "[6]; 6 days @ 50° C.", "value": 10.9},
      {"measurement": "Potency", "setting": "[6]; 16 days @ 50° C.", "value": 1900, "unit": "µg/mL"},
      {"measurement": "Total Impurities", "setting": "[6]; 16 days @ 50° C.", "value": 16.5},
      {"measurement": "Potency", "setting": "[6]; Initial", "value": 2200, "unit": "µg/mL"},
      {"measurement": "Total Impurities", "setting": "[6]; Initial", "value": 2.1},
      {"measurement": "% potency remaining", "setting": "[6]; injection solution (ethanol, pH 5.4 tartrate buffer) w/o POE castor oil, 28 days stored at 50° C.", "value": 100, "unit": "%"},
      {"measurement": "% potency remaining", "setting": "[6]; injection solution (ethanol, pH 5.4 tartrate buffer) with POE castor oil 4%, 16 days stored at 50° C.", "value": 86, "unit": "%"},
      {"measurement": "solubility thermodynamic", "setting": "[7]; 5 °C, aqueous with cosolvent or surfactant or cyclodextrin, thermodynamic from solid, 5 ± 3° C.", "value": 2460, "unit": "µg/mL"},
      {"measurement": "solubility thermodynamic at 16 h", "setting": "[7]; aqueous with cosolvent or surfactant or cyclodextrin, thermodynamic from solid, 24 ± 3° C., individual lots of drug substance, read-out: Equilibrium Solubility in Diluted Drug Product", "value": 2580, "unit": "µg/mL"},
      {"measurement": "solubility thermodynamic at 16 h", "setting": "[7]; aqueous with cosolvent or surfactant or cyclodextrin, thermodynamic from solid, Average @ 24 ± 3° C., four lots, read-out: Equilibrium Solubility in Diluted Drug Product, Average", "value": "~2580", "unit": "µg/mL"},
      {"measurement": "Equilibrium Solubility in Diluted Drug Product", "setting": "[7]; 24 ± 3° C., individual lots of drug substance", "value": "2570 µg/mL and 2620 µg/mL and 2560 µg/mL"},
      {"measurement": "Equilibrium Solubility in Diluted Drug Product, Average", "setting": "[7]; Average @ 24 ± 3° C., four lots", "value": 2580, "unit": "µg/mL"},
      {"measurement": "outcome of dilution with aqueous diluents", "setting": "[8]", "value": "drug precipitation"}
    ]}
  ]
}
